Laboratory results reported in patent US7531567B2, “Use of a medicament containing an effector of the glutathione metabolism together with α-lipoic acid in kidney replacement therapy” (Serumwerk Bernburg AG, priority 2001, dated 2009).

Key:
Assay type in all cases: cell-based, human
[1] = system: peripheral immune cells; assay: membrane-bound thiol expression of peripheral immune cells (CMTMR flow cytofluorimetry); settings: α-lipoic acid 50 μM, captopril 10 μM, combination at the same concentrations
Protocol: Peripheral immune cells of healthy donors (n=9) were isolated from the peripheral blood by means of density gradient centrifugation. Lymphocytes having a donor-dependent relative proportion of about 90% in this case normally represent the main fraction of the resulting total population of mononuclear cells. 10% of the mononuclear cells are represented by monocytes. The mononuclear cells obtained were taken up in special cell culture media and incubated in a gas incubator at 37° C., a relative humidity of 98% and 5% relative air-CO2 content. The metabolism of the primarily resting immune cells was activated by means of mitogenic stimulation (0.5 μg/ml of phytohemagglutinin). In order to test the influence of the combinations used according to the invention on the thiol status of thiol-deficient immune cells, these were artificially thiol-depleted. This was carried out by culturing in thiol-deficient media (RPMI 1603) according to tested procedures. Comparison cultures using whole media (RPMI 1640) served for the definition of the best possible normal value under culture conditions. The expression of membrane-bound thiol groups was likewise determined by flow cytofluorimetry. In this connection, chloromethyltetramethylrhodamine (CMTMR) was employed as a thiol conjugate under the conditions of a blocked membrane potential and of an inhibited diffusion capacity of the cells. The fluorescence intensity of the bound fluorochrome molecules on the cell membrane is in this case in turn proportional to the amount of the thiol groups on the cell surface.

[2] = system: T lymphocytes; assay: activation markers CD69, CD25, CD71 of phytohemagglutinin-stimulated T lymphocytes; settings: thiol-deficient cells, culture period of 72 hours, FIG. 3
Protocol: In the culture batch described under example 1, human T lymphocytes were stimulated with […] of phyto-hemagglutinin. […] The influence of the combinations used according to the invention on the activation markers CD69 (early activation antigen), CD25 (intermediate activation antigen) and CD71 (late activation antigen) of T lymphocytes was investigated. In FIG. 3, the action of the combination of α-lipoic acid and ambroxole (FIG. 3a), and α-lipoic acid and enalapril (FIG. 3b) on the activation index of T lymphocytes is shown. Compared with normal T lymphocytes (activation index=1.0), in thiol-deficient cells a clear lowering of the activatability, confirming the cellular functional disorder, is to be noted. […] It can thus be concluded that the normalization of the cellular thiol status mediated by the combined use of α-lipoic acid and the respective effectors of the glutathione metabolism is accompanied by a restitution of the cellular functionality.

[3] = system: peritoneal macrophages; assay: cellular thiol expression of peritoneal macrophages in kidney replacement therapy; settings: time kinetics over 14 days (n=12); FIG. 4
Protocol: Peritoneal macrophages were isolated from the effluate of the peritoneal dialysis of high-grade renally insufficient patients, taken up in cell culture medium and incubated in a gas incubator at 37° C., a relative humidity of 98% and 7.5% relative air-CO2 content. In order to test the influence of the combinations used according to the invention on the thiol status of the peritoneal macrophages, in each case a fraction was treated with α-lipoic acid, the effector of the glutathione metabolism ambroxole or the ACE inhibitor enalapril or with the combination of α-lipoic acid/ambroxole or α-lipoic acid/enalapril, while in each case a further fraction was used as an untreated control. The determination of the cellular thiol status was carried out by means of the measuring method described under 1. The membrane expression of thiols was determined by means of the mean fluorescence intensity (mfi) of the sample (3000 cells/measurement) after coupling to a chloromethylfluorochrome derivative. In FIG. 4, the effect of the combination of α-lipoic acid and ambroxole (FIG. 4a), and α-lipoic acid and enalapril (FIG. 4b) in the time kinetics over 14 days is shown (n=12).

[4] = system: peritoneal macrophages; assay: cytokine synthesis of peritoneal macrophages (enzyme immunoassay); settings: treatment period of 6 days (n=10); α-lipoic acid 50 μM, ambroxole 10 μM, enalapril 5 μM, captopril 10 μM
Protocol: In parallel to this, in this experimental batch the cell culture supernatants were recovered and the cytokines interleukin-6 (IL-6) and interleukin-1 receptor antagonist (IL-1ra) contained therein, synthesized and secreted by the peritoneal macrophages, were determined.

`O=C(O)CCCCC1CCSS1` (stereo not drawn) [α-lipoic acid] gave a Membrane-bound thiol expression ([1]; culture period 0 d) of 2.37 ± 0.45 mfiBeads/Ratio, a Membrane-bound thiol expression ([1]; culture period 1 d) of 2.65 ± 0.39 mfiBeads/Ratio and a Membrane-bound thiol expression ([1]; culture period 2 d) of 2.43 ± 0.52 mfiBeads/Ratio. For the same molecule, the Membrane-bound thiol expression ([1]; culture period 3 d) was 2.31 ± 0.36 mfiBeads/Ratio, the Membrane-bound thiol expression ([1]; culture period 4 d) was 2.26 ± 0.20 mfiBeads/Ratio and the Membrane-bound thiol expression ([1]; culture period 6 d) was 2.19 ± 0.13 mfiBeads/Ratio. It also gave a Membrane-bound thiol expression ([1]; culture period 8 d) of 1.93 ± 0.20 mfiBeads/Ratio, a Membrane-bound thiol expression ([1]; culture period 10 d) of 1.63 ± 0.16 mfiBeads/Ratio and a Membrane-bound thiol expression ([1]; culture period 12 d) of 1.32 ± 0.21 mfiBeads/Ratio. The Membrane-bound thiol expression ([1]; culture period 14 d) was 1.34 ± 0.20 mfiBeads/Ratio, the “effect on the activation index of T lymphocytes (in words)” value [2] was “slight improvement in the cellular activatability” and the “effect on the cellular thiol expression of peritoneal macrophages (in words)” value [3] was “increase in the cellular thiol expression”. It also gave an IL-1ra [4] of 119.8 ± 19.5 ng/10^6 cells and an IL-6 [4] of 46.9 ± 6.7 ng/10^6 cells.
